# Patent EP4768018A1, “TOPICAL GEL FOR JAK INHIBITOR AND USE THEREOF” (Prime Gene Therapeutics Co., Ltd., priority 2023, dated 2025)
# Experiments:
# [1] = Crystal form conversion (room temperature; in the gel formulation, XRPD); type: physicochemical; conditions: after 3 days; XRPD, FIG. 5 to FIG. 6
# Description: Crystal Form IIa converts to Crystal Form IIb within 1 hour at room temperature (58.6% RH). During the preparation of topical gel formulation, Crystal Form I and Crystal Form IIb were respectively used as active pharmaceutical ingredients.
# [2] = Solubility of crystal forms at different pH (37°C, 24 h); type: physicochemical
# Description: (§1) Solubility Study of Various Crystal Forms
# Solubility Measurement Results (37°C, 24 h)
# [3] = Long-term (24 months) stability study of crystal forms; type: physicochemical
# Description: In accordance with the stability study guidelines issued by the China's National Medical Products Administration (NMPA), stability studies were conducted on Crystal Forms I, IIa, and IIb. Samples were packaged in pharmaceutical low-density polyethylene bags, and long-term stability (24 months) was evaluated.
# [4] = Transdermal test of crystal forms as topical gel in rats (permeation, drug content in skin by LC/MS/MS); type: in vivo, rat; conditions: topical gel according to the compositions of Example 1; FIG. 10A and FIG. 10B; Crystal Form I versus Crystal Form IIb
# Description: Crystal Forms I and IIb were prepared into topical gel formulations according to the compositions of Example 1, and transdermal tests were immediately conducted to determine their respective transdermal rates.
# Blood samples were collected at 0.25, 0.5, 1, 2, 4, 6, 8, and 24 hours after topical administration. Using a small animal anesthesia machine, 0.3 mL of whole blood was collected from the retro-orbital venous plexus under isoflurane anesthesia and placed in heparin anticoagulant tubes. Samples were centrifuged at 4°C, 4000 rpm for 5 minutes, plasma was transferred to centrifuge tubes, and stored at -80°C until analysis. Samples in plasma were extracted using protein precipitation, and the extract was analyzed by LC/MS/MS. After the test, the drug on skin was washed off, and the rat skin at administration site was excised, homogenized, and analyzed by LC/MS/MS for drug content in the skin. Table 4 Drug Concentration in Skin 24 h After Topical Administration
# [5] = Solubility of crystal forms in 20% propylene glycol at 32°C; type: physicochemical
# Description: as §1
# Solubility in 20% Propylene Glycol at 32°C (µg/mL)
structure (smiles),measurement,setting,value
"CC(C)S(=O)(=O)N1CC(CC#N)(n2cc(-c3ncnc4[nH]ccc34)c(N)n2)C1 [Crystal Form I, 2-{3-[3-amino-4-(7H-pyrrolo[2,3-d]pyrimidin-4-yl)-1H-pyrazol-1-yl]-1-(isopropylsulfonyl)azetidin-3-yl}acetonitrile Crystal Form I]",crystal form of the active pharmaceutical ingredient in the final gel formulation,[1],exclusively in form IIb
same,Solubility Conc.,"[2]; pH 1.0, 1440 min",464.2 µg/mL
same,Solubility Conc.,"[2]; pH 2.0, 1440 min",37.8 µg/mL
same,Solubility Conc.,"[2]; pH 3.8, 1440 min",2.3 µg/mL
same,Solubility Conc.,"[2]; pH 4.5, 1440 min",1.8 µg/mL
same,Solubility Conc.,"[2]; pH 5.5, 1440 min",1.6 µg/mL
same,Appearance,[3]; 0 month,Off-white powder
same,Content,[3]; 0 month,99.9%
same,Loss on Drying,[3]; 0 month,0.08%
same,Related Substances Max Unknown Single Impurity,[3]; 0 month,0.17%
same,Related Substances Total Impurity,[3]; 0 month,0.58%
same,Appearance,[3]; 3 month,Off-white powder
same,Loss on Drying,[3]; 3 month,0.06%
same,Related Substances Max Unknown Single Impurity,[3]; 3 month,0.16%
same,Related Substances Total Impurity,[3]; 3 month,0.57%
same,Content,"[3]; 3 month, 131040 min",100.1%
same,Appearance,[3]; 6 month,Off-white powder
same,Loss on Drying,[3]; 6 month,0.08%
same,Related Substances Max Unknown Single Impurity,[3]; 6 month,0.17%
same,Related Substances Total Impurity,[3]; 6 month,0.57%
same,Content,"[3]; 6 month, 263520 min",100.0%
same,Appearance,[3]; 9 month,Off-white powder
same,Loss on Drying,[3]; 9 month,0.11%
same,Related Substances Max Unknown Single Impurity,[3]; 9 month,0.17%
same,Related Substances Total Impurity,[3]; 9 month,0.57%
same,Content,"[3]; 9 month, 394560 min",99.8%
same,Appearance,[3]; 12 month,Off-white powder
same,Loss on Drying,[3]; 12 month,0.09%
same,Related Substances Max Unknown Single Impurity,[3]; 12 month,0.17%
same,Related Substances Total Impurity,[3]; 12 month,0.55%
same,Content,"[3]; 12 month, 525600 min",99.9%
same,Appearance,[3]; 18 month,Off-white powder
same,Loss on Drying,[3]; 18 month,0.12%
same,Related Substances Max Unknown Single Impurity,[3]; 18 month,0.18%
same,Related Substances Total Impurity,[3]; 18 month,0.62%
same,Content,"[3]; 18 month, 789120 min",99.7%
same,Appearance,[3]; 24 month,Off-white powder
same,Loss on Drying,[3]; 24 month,0.10%
same,Related Substances Max Unknown Single Impurity,[3]; 24 month,0.16%
same,Related Substances Total Impurity,[3]; 24 month,0.59%
same,Content,"[3]; 24 month, 1.0512e+06 min",99.8%
same,stability study result in words,[3]; 24 months,good chemical stability
same,transdermal performance,[4],better transdermal performance
same,Solubility in 20% Propylene Glycol at 32°C,[5]; 10 min,12.7 µg/mL
same,Solubility in 20% Propylene Glycol at 32°C,[5]; 30 min,26.9 µg/mL
same,Solubility in 20% Propylene Glycol at 32°C,"[5]; 1 h, 60 min",35.8 µg/mL
same,Solubility in 20% Propylene Glycol at 32°C,"[5]; 2 h, 120 min",42.1 µg/mL
